# Molecular target: T1, h FPR2 (Homo sapiens, UniProt P25090)
# T1 construct: expressed in transfected cells
# T1 sequence (P25090 1-351): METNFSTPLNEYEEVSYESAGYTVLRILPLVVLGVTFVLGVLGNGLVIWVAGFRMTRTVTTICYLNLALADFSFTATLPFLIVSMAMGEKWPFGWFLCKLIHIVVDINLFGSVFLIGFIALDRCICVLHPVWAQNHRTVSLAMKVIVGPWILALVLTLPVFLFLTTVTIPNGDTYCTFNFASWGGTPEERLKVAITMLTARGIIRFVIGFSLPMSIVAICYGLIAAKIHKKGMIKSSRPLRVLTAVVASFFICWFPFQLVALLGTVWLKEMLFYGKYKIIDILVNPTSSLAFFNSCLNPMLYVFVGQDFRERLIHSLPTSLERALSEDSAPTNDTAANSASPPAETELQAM
# Assay: Agonistic activity in hFPR2-Aq-CHO cells (FLIPR Calcium 5 fluorescence assay)
# Assay type: cell-based
# Conditions: 11 point half log dilution, final assay concentration from 10µM
# Description: After washing, the cells are plated at 10,000 cells per well in 40 µL complete medium in a 384-well sterile clear bottom black plate and incubated in a 5% CO2 incubator at 37°C for 18 hours. Plating media is removed from each well by decanting and gentle tapping before 30 µL of 0.5X Calcium 5 dye solution (0.5X FLIPR Calcium 5 dye (Molecular devices, R8186)); HBSS; 20mM HEPES; 2.5mM Probenecid; 0.025% Pluronic F-127; pH adjusted to 7.4) is added to each well and the plate is then incubated at 37°C for 30 minutes. For the assay the plate is equilibrated at room temperature for 10 minutes before placing it in the FLIPR. Compounds are dissolved in DMSO and serially diluted over an 11 point half log (3.16 fold) dilution (2 mM to 20 nM). Compounds are then diluted 1:50 in assay buffer (HBSS; 20mM HEPES; 2.5mM Probenecid; 0.05% gelatin; 0.1% BSA; pH adjusted to 7.4) just before performing the assay. Compounds are finally added to the respective wells of the cell plate (final assay concentration 10 µM to 100 pM) using the FLIPR (e.g. FLIPR-Tetra, Molecular Devices) and fluorescence readings are captured for 5 minutes. The increase in fluorescence from the basal reading in the presence of the compounds is compared with that of the control wells (wells having no compound) to calculate the activity of the compounds. The EC50 values of the compounds can be determined using e.g. Graph pad Prism software.
# Assay method for measuring agonistic activity of compounds in hFPR2-Aq-CHO cell
# Cryo-vial containing 6x10^6 cells (hFPR1-Gα15-CHO or hFPR2-Aq-CHO) was thawed in a 37°C water bath. Cells were suspended in 10ml of respective complete growth media (F12(1X)HAM media (Gibco; Cat#11765); 10% HI-FBS (Gibco; Cat#10082); 0.4 mg/ml Geneticin (Gibco; Cat#10131); 0.25 mg/ml Zeocin (Invitrogen; Cat#R25001)) in a 15ml centrifuge tube. The cell viability was checked with the help of Trypan Blue dye. Upon washing the cells, those were plated in a 384-well sterile clear bottom black plate (Greiner Bioone Cat# 781091) so that, each well contained 10,000 cells in 40µl complete growth media. The plate was incubated in a 5% CO2 incubator at 37°C for 18 hours. Before assay on the next day, the cell plating media was removed from each well of the plate by decanting and gentle tapping. 30µl of 0.5X Calcium 5 dye solution (0.5X FLIPR Calcium 5 dye (Molecular devices Cat# R8186); HBSS (Invitrogen; Cat#14025); 20mM HEPES (Sigma; Cat#H0887); 2.5mM Probenecid (Sigma; Cat#P8761); 0.025% Pluronic F-127 (Sigma; Cat#P2443); pH adjusted to 7.4) was added to each well. The plate was then incubated at 37°C for 30 minutes. Following which the plate was equilibrated at room temperature for 10 minutes before placing it in a 384 well FLIPR for assay. Compounds were dissolved in DMSO and serially diluted following 11 point half log (3.16 fold) dilution with a starting concentration of 2mM (Final assay concentration 10µM). Aliquots of above mentioned each dilution was mixed with assay buffer (HBSS (Invitrogen; Cat#14025); 20mM HEPES (Sigma; Cat#H0887); 2.5mM Probenecid (Sigma; Cat#P8761); 0.05% gelatin (Sigma; Cat#G1890); 0.1% BSA (Sigma; Cat#A3059); pH adjusted to 7.4) just before performing the assay. Compounds were added to the respective wells of the assay ready cell plate with the help of the FLIPR (FLIPR Tetra) and fluorescence readings were captured for 5 minutes to measure any agonistic response of the compounds. The increase in fluorescence readings from the basal reading in presence of the compounds were compared with that of the control wells (wells having no compound) to calculate the agonistic activity of the compounds. The EC50 values of the compounds were determined using the Graph pad Prism software.
row,SMILES,EC50 [nM]
1,"Cc1cc(NC(=O)N[C@@H]2CCN(c3cnccn3)C[C@H]2c2ccc(Cl)cn2)sn1 (relative stereo) [Ex-19, trans-1-(5-chloro-1'-pyrazin-2-yl-1',2',3',4',5',6'-hexahydro-[2,3']bipyridinyl-4'-yl)-3-(3-methyl-isothiazol-5-yl)-urea]",0.8
2,"COc1ccc([C@@H]2CN(c3ccc(F)cc3)CC[C@H]2NC(=O)Nc2cc(C)ns2)nc1 (relative stereo) [Ex-20, trans-1-[1'-(4-fluoro-phenyl)-5-methoxy-1',2',3',4',5',6'-hexahydro-[2,3']bipyridinyl-4'-yl]-3-(3-methyl-isothiazol-5-yl)-urea]",1
3,"Cc1cc(NC(=O)N[C@@H]2CCN(c3ccnc(C)n3)C[C@H]2c2ccc(Cl)cn2)sn1 (relative stereo) [Ex-21, trans-1-[5-chloro-1'-(2-methyl-pyrimidin-4-yl)-1',2',3',4',5',6'-hexahydro-[2,3']bipyridinyl-4'-yl]-3-(3-methyl-isothiazol-5-yl)-urea]",7
4,"Cc1cc(NC(=O)N[C@@H]2CCN(c3ccc(F)cc3)C[C@H]2c2ccc(Cl)cn2)sn1 (relative stereo) [Ex-26, trans-1-[5-chloro-1'-(4-fluoro-phenyl)-1',2',3',4',5',6'-hexahydro-[2,3']bipyridinyl-4'-yl]-3-(3-methyl-isothiazol-5-yl)-urea]",1
5,"Cc1cc(NC(=O)N[C@@H]2CCN(c3cc(C(F)(F)F)ncn3)C[C@H]2c2ccc(Cl)cn2)sn1 (relative stereo) [Ex-27, trans-1-[5-chloro-1'-(6-trifluoromethyl-pyrimidin-4-yl)-1',2',3',4',5',6'-hexahydro-[2,3']bipyridinyl-4'-yl]-3-(3-methyl-isothiazol-5-yl)-urea]",6
6,"Cc1cc(NC(=O)N[C@@H]2CCN(c3ccnc(C(F)(F)F)n3)C[C@H]2c2ccc(Cl)cn2)sn1 (relative stereo) [Ex-28, trans-1-[5-chloro-1'-(2-trifluoromethyl-pyrimidin-4-yl)-1',2',3',4',5',6'-hexahydro-[2,3']bipyridinyl-4'-yl]-3-(3-methyl-isothiazol-5-yl)-urea]",17
7,"Cc1cc(N2CC[C@@H](NC(=O)Nc3cc(C)ns3)[C@H](c3ccc(Cl)cn3)C2)ncn1 (relative stereo) [Ex-31, trans-1-[5-chloro-1'-(6-methyl-pyrimidin-4-yl)-1',2',3',4',5',6'-hexahydro-[2,3']bipyridinyl-4'-yl]-3-(3-methyl-isothiazol-5-yl)-urea]",5
8,"Cc1cc(NC(=O)N[C@@H]2CCN(c3cccnn3)C[C@H]2c2ccc(Cl)cn2)sn1 (relative stereo) [Ex-32, trans-1-(5-chloro-1'-pyridazin-3-yl-1',2',3',4',5',6'-hexahydro-[2,3']bipyridinyl-4'-yl)-3-(3-methyl-isothiazol-5-yl)-urea]",3
9,"Cc1ccc(N2CC[C@@H](NC(=O)Nc3cc(C)ns3)[C@H](c3ccc(Cl)cn3)C2)nn1 (relative stereo) [Ex-33, trans-1-[5-chloro-1'-(6-methyl-pyridazin-3-yl)-1',2',3',4',5',6'-hexahydro-[2,3']bipyridinyl-4'-yl]-3-(3-methyl-isothiazol-5-yl)-urea]",11
10,"Cc1cc(NC(=O)N[C@@H]2CCN(c3cncc(C)n3)C[C@H]2c2ccc(Cl)cn2)sn1 (relative stereo) [Ex-34, trans-1-[5-chloro-1'-(6-methyl-pyrazin-2-yl)-1',2',3',4',5',6'-hexahydro-[2,3']bipyridinyl-4'-yl]-3-(3-methyl-isothiazol-5-yl)-urea]",4
11,"Cc1cnc(N2CC[C@@H](NC(=O)Nc3cc(C)ns3)[C@H](c3ccc(Cl)cn3)C2)cn1 (relative stereo) [Ex-41, trans-1-[5-chloro-1'-(5-methyl-pyrazin-2-yl)-1',2',3',4',5',6'-hexahydro-[2,3']bipyridinyl-4'-yl]-3-(3-methyl-isothiazol-5-yl)-urea]",3
12,"COc1ccc([C@@H]2CN(Cc3ccc(C(F)(F)F)nc3)CC[C@H]2NC(=O)Nc2ccc(Cl)cc2)nc1 (relative stereo) [Ex-60, trans-1-(4-chlorophenyl)-3-(3-(5-methoxypyridin-2-yl)-1-((6-(trifluoromethyl)pyridin-3-yl)methyl)piperidin-4-yl)urea]",0.04
13,"COc1ccc([C@@H]2CN(Cc3cnc(C)nc3)CC[C@H]2NC(=O)Nc2ccc(Cl)cc2)nc1 (relative stereo) [Ex-61, trans-1-(4-chlorophenyl)-3-[3-(5-methoxy-2-pyridyl)-1-[(2-methylpyrimidin-5-yl)methyl]-4-piperidyl]urea]",0.6

# Same assay, conditions: agonistic response at 0.1µM
SMILES,activation at 0.1 µM [%],h FPR2 FLIPR % @0.1µM [%@0.1µM]
"Cc1cc(CN2CC[C@@H](NC(=O)Nc3ccc(Cl)cc3)[C@H](c3ccc(Cl)cn3)C2)no1 (relative stereo) [Ex-23, trans-1-(4-chlorophenyl)-3-[3-(5-chloropyridin-2-yl)-1-[(5-methyl-1,2-oxazol-3-yl)methyl]piperidin-4-yl]urea]",28,
"COc1ccc([C@@H]2CN(c3ccncn3)C(=O)C[C@H]2NC(=O)Nc2ccc(Cl)cc2)nc1 (relative stereo) [Ex-25, trans-1-(4-chlorophenyl)-3-[5-(5-methoxypyridin-2-yl)-2-oxo-1-(pyrimidin-4-yl)piperidin-4-yl]urea]",17,
"COc1ccc([C@@H]2CN(Cc3ccn(C)n3)CC[C@H]2NC(=O)Nc2ccc(Cl)cc2)nc1 (relative stereo) [Ex-40, trans-1-(4-chlorophenyl)-3-[3-(5-methoxypyridin-2-yl)-1-[(1-methyl-1H-pyrazol-3-yl)methyl]piperidin-4-yl]urea]",10,
"Cc1cc(CN2CC[C@@H](NC(=O)Nc3ccc(Cl)cc3)[C@H](c3ccc(Cl)s3)C2)no1 (relative stereo) [Ex-45, trans-1-(4-chlorophenyl)-3-[3-(5-chlorothiophen-2-yl)-1-[(5-methyl-1,2-oxazol-3-yl)methyl]piperidin-4-yl]urea]",10,
"COc1ccc([C@@H]2CN(CC3CCOCC3)CC[C@H]2NC(=O)Nc2ccc(Cl)cc2)nc1 (relative stereo) [Ex-50, trans-1-(4-chlorophenyl)-3-[(5-methoxypyridin-2-yl)-1-(oxan-4-ylmethyl)piperidin-4-yl]urea]",,40
"COc1ccc([C@@H]2CN(Cc3ccn(S(C)(=O)=O)n3)CC[C@H]2NC(=O)Nc2ccccc2)nc1 (relative stereo) [Ex-59, trans-3-[1-[(1-methanesulfonyl-1H-pyrazol-3-yl)methyl]-3-(5-methoxypyridin-2-yl)piperidin-4-yl]-1-phenylurea]",26,
"Cc1cc(NC(=O)N[C@@H]2CCN(Cc3ncccn3)C[C@H]2c2ccc(Cl)s2)sn1 (relative stereo) [Ex-63, trans-1-[3-(5-chlorothiophen-2-yl)-1-(pyrimidin-2-ylmethyl)piperidin-4-yl]-3-(3-methyl-1,2-thiazol-5-yl)urea]",44,

# Reference: patent EP3789378A1, “PIPERIDINES OR PIPERIDONES SUBSTITUTED WITH UREA AND HETEROARYL” (Grünenthal GmbH, priority 2019, dated 2021)
